pEC50: −log10 of the molar value. “And” between values parts separate entries of the source, which are not always exact repeats. Identical values can stand only once. Like-named read-outs stand apart in the source and are kept apart here. Non-standard residues stand in square brackets, D forms with d. Residues, ends and D or L forms follow the SMILES beside them. *: point of attachment. Doxorubicin(3'-N) = COc1cccc2c1C(=O)c1c(O)c3c(c(O)c1C2=O)C[C@@](O)(C(=O)CO)C[C@@H]3O[C@H]1C[C@H](N*)[C@H](O)[C@H](C)O1; X2 = COCCOCCOCCOCCOCCOCCOCCOCCOCCOCCOCCOCCOCCOCCOCCOCCOCC(=O)*; Decanoyl(3,6,9-trioxa) = COCCOCCOCC(=O)*; Glyceroyl(2R) = O=C([C@H](O)CO)*; X4 = COCCOCCOCCOCCOCCOCCOCC(=O)*; hArg = N=C(N)NCCCC[C@H](N)C(=O)O; 3Pal = N[C@@H](Cc1cccnc1)C(=O)O; Chg = N[C@H](C(=O)O)C1CCCCC1; Nle = CCCC[C@H](N)C(=O)O; Glycolyl = O=C(CO)*
Tests used:
[1] = system: LNCap prostate tumor cells; test: In vitro cytotoxicity, Alamar Blue assay, LNCaP; type: cell-based; settings: 72 HRS, read-out: LNCaP Cell Kill in 72 HRS, {48 HRS} EC 50
Procedure: (§1) The cytotoxicities of the cleaveable oligopeptide-doxorubicin conjugates, prepared as described in Examples 3-6, against a line of cells which is known to be killed by unmodified doxorubicin was assessed with an Alamar Blue assay. Specifically, cell cultures of LNCap prostate tumor cells or DuPRO cells in 96 well plates was diluted with medium containing various concentrations of a given conjugate (final plate well volume of 200 μl ). The cells were incubated for 3 days at 37° C., 20 μl of Alamar Blue is added to the assay well. The cells were further incubated and the assay plates were read on a EL-310 ELISA reader at the dual wavelengths of 570 and 600 nm at 4 and 7 hours after addition of Alamar Blue. Relative percentage viability at the various concentration of conjugate tested was then calculated versus control (no conjugate) cultures. If no salt is indicated, the free conjugate was tested.

[2] = target: T1, enzymatically active free PSA (Homo sapiens, UniProt P07288); test: Recognition (cleavage) of oligopeptide-doxorubicin conjugates by free PSA, HPLC; type: biochemical; settings: DOX conjugate; for Time to 50% Substrate Cleavage by York PSA: PSA digestion buffer pH7.4, 140 mM NaCl, molar ratio to PSA 100 to 1
T1 construct: required for 50% cleavage of the noted oligopeptides with enzymatically active free PSA
T1 sequence (P07288 25-261): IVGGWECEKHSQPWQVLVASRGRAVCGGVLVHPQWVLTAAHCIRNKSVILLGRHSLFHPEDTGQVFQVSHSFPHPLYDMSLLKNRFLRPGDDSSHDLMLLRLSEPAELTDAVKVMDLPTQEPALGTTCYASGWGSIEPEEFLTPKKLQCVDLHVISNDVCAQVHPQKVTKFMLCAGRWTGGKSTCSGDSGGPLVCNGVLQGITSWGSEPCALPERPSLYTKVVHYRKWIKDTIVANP
Procedure: If no salt is indicated for the conjugate, the free conjugate was tested.

DuPRO cells = test: In vitro cytotoxicity, Alamar Blue assay, DuPRO; type: cell-based; settings: value in parentheses beside the LNCaP value, read-out: DuPRO cell kill EC 50
Procedure: as §1

[3] = target: T1, enzymatically active free PSA; type: biochemical
Procedure: All other oligopeptides were tested as neutral compounds.

[4] = oligopeptide, PSA digestion buffer pH8.0, molar ratio to PSA 100 to 1

Molecule | pEC50 [1] | Time to 50% Substrate Cleavage by York PSA [2] [min] | further results
COCCOCCOCCOCCOCCOCCOCCOCCOCCOCCOCCOCCOCCOCCOCCOCCOCC(=O)N[C@@H](CO)C(=O)N[C@@H](CCCCNC(=N)N)C(=O)N[C@@H](Cc1ccc(O)cc1)C(=O)N[C@@H](CCC(N)=O)C(=O)N[C@@H](CO)C(=O)N[C@@H](CC(C)C)C(=O)N[C@H]1C[C@H](O[C@H]2C[C@](O)(C(=O)CO)Cc3c(O)c4c(c(O)c32)C(=O)c2c(OC)cccc2C4=O)O[C@@H](C)[C@H]1O [PEG(16)-SHomoRYQ-SL-DOX (3′), PEG(16)-SerhArgTyrGln-SerLeu-DOX (3′)] (X2-S[hArg]YQSL-{Doxorubicin(3'-N)}) | 4.35 | 65 | 
COCCOCCOCCOCCOCCOCCOCC(=O)N[C@@H](C)C(=O)N[C@@H](CO)C(=O)N[C@H](C(=O)N[C@@H](CCC(N)=O)C(=O)N[C@@H](CO)C(=O)N[C@@H](CC(C)C)C(=O)N[C@H]1C[C@H](O[C@H]2C[C@](O)(C(=O)CO)Cc3c(O)c4c(c(O)c32)C(=O)c2c(OC)cccc2C4=O)O[C@@H](C)[C@H]1O)C1CCCCC1 [PEG(6)-ASChgQ-SL-DOX (3′), PEG(6)-AlaSerChgGln-SerLeu-DOX (3′)] (X4-AS[Chg]QSL-{Doxorubicin(3'-N)}) | 4.92 | 160 | 
COc1cccc2c1C(=O)c1c(O)c3c(c(O)c1C2=O)C[C@@](O)(C(=O)CO)C[C@@H]3O[C@H]1C[C@H](NC(=O)[C@H](CC(C)C)NC(=O)[C@H](CO)NC(=O)[C@H](CCC(N)=O)NC(=O)[C@@H](NC(=O)[C@H](CO)NC(=O)[C@H](CO)NC(=O)[C@H](Cc2cccnc2)NC(=O)[C@H](O)CO)C2CCCCC2)[C@H](O)[C@H](C)O1 [(d)(2,3-dihydroxypropionyl)-3PAL-SerSerChgGln-SerLeu-DOX (3′)] ({Glyceroyl(2R)}-[3Pal]SS[Chg]QSL-{Doxorubicin(3'-N)}) | 5.26 | 12 | 
PEG(2)-SerSerSerChgGln-Ser(dLeu)-DOX (3′) ({Decanoyl(3,6,9-trioxa)}-SSS[Chg]QS[dL]-{Doxorubicin(3'-N)}; also: DOX attached at 3′) [PEG(2)-SSSChgQ-S(dL)-DOX (3′)] |  |  | Substrate cleavage by York PSA at 3 HOUR ([2]; 3 hours): 46%
COCCOCCOCC(=O)N[C@@H](CCCCN)C(=O)N[C@@H](Cc1ccc(O)cc1)C(=O)N[C@@H](CCC(N)=O)C(=O)N[C@@H](CO)C(=O)N[C@@H](CO)C(=O)N[C@@H](CO)C(=O)N[C@@H](CC(C)C)C(=O)N[C@H]1C[C@H](O[C@H]2C[C@](O)(C(=O)CO)Cc3c(O)c4c(c(O)c32)C(=O)c2c(OC)cccc2C4=O)O[C@@H](C)[C@H]1O [PEG(2)-KYQ-SSSL-DOX (3′), PEG(2)-LysTyrGln-SerSerSerLeu-DOX (3′)] ({Decanoyl(3,6,9-trioxa)}-KYQSSSL-{Doxorubicin(3'-N)}) | 4.89 |  | 
COc1cccc2c1C(=O)c1c(O)c3c(c(O)c1C2=O)C[C@@](O)(C(=O)CO)C[C@@H]3O[C@H]1C[C@H](NC(=O)[C@H](CC(C)C)NC(=O)[C@H](CO)NC(=O)[C@H](CCC(N)=O)NC(=O)[C@H](Cc2ccc(O)cc2)NC(=O)[C@H](CO)NC(=O)[C@H](CO)NC(=O)[C@H](CCCCNC(=N)N)NC(=O)CO)[C@H](O)[C@H](C)O1 [2-hydroxyacetyl-HomoRSSYQ-SL-DOX (3′), 2-hydroxyacetyl-hArgSerSerTyrGln-SerLeu-DOX (3′)] (Glycolyl-[hArg]SSYQSL-{Doxorubicin(3'-N)}) | 4.87 | 16 | 
COCCOCCOCC(=O)N[C@@H](CCCCNC(=N)N)C(=O)N[C@@H](Cc1ccc(O)cc1)C(=O)N[C@@H](CCC(N)=O)C(=O)N[C@@H](CO)C(=O)N[C@@H](CO)C(=O)N[C@@H](CO)C(=O)N[C@@H](CC(C)C)C(=O)N[C@H]1C[C@H](O[C@H]2C[C@](O)(C(=O)CO)Cc3c(O)c4c(c(O)c32)C(=O)c2c(OC)cccc2C4=O)O[C@@H](C)[C@H]1O [PEG(2)-HomoRYQ-SSSL-DOX (3′), PEG(2)-hArgTyrGln-SerSerSerLeu-DOX (3′)] ({Decanoyl(3,6,9-trioxa)}-[hArg]YQSSSL-{Doxorubicin(3'-N)}) | 4.85 |  | Substrate cleavage by York PSA at 4 HOUR ([2]; 4 hours): 40%
COCCOCCOCC(=O)N[C@@H](CO)C(=O)N[C@@H](CCCCNC(=N)N)C(=O)N[C@@H](Cc1ccc(O)cc1)C(=O)N[C@@H](CCC(N)=O)C(=O)N[C@@H](CO)C(=O)N[C@@H](CC(C)C)C(=O)N[C@H]1C[C@H](O[C@H]2C[C@](O)(C(=O)CO)Cc3c(O)c4c(c(O)c32)C(=O)c2c(OC)cccc2C4=O)O[C@@H](C)[C@H]1O [PEG(2)-SHomoRYQ-SL-DOX (3′), PEG(2)-SerhArgTyrGln-SerLeu-DOX (3′)] ({Decanoyl(3,6,9-trioxa)}-S[hArg]YQSL-{Doxorubicin(3'-N)}) |  | 60 | pEC50 ([1]; listed as PEG(2)-ShRYQ-SL-DOX(3′)): 4.47
COCCOCCOCC(=O)N[C@@H](C)C(=O)N[C@@H](CO)C(=O)N[C@H](C(=O)N[C@@H](CCC(N)=O)C(=O)N[C@@H](CO)C(=O)N[C@@H](CC(C)C)C(=O)N[C@H]1C[C@H](O[C@H]2C[C@](O)(C(=O)CO)Cc3c(O)c4c(c(O)c32)C(=O)c2c(OC)cccc2C4=O)O[C@@H](C)[C@H]1O)C1CCCCC1 [PEG(2)-ASChgQ-SL-DOX (3′), PEG(2)-AlaSerChgGln-SerLeu-DOX (3′)] ({Decanoyl(3,6,9-trioxa)}-AS[Chg]QSL-{Doxorubicin(3'-N)}) | 5.25 | 45 | 
COc1cccc2c1C(=O)c1c(O)c3c(c(O)c1C2=O)C[C@@](O)(C(=O)CO)C[C@@H]3O[C@H]1C[C@H](NC(=O)[C@H](CC(C)C)NC(=O)[C@H](CO)NC(=O)[C@H](CCC(N)=O)NC(=O)[C@@H](NC(=O)[C@H](CO)NC(=O)[C@H](C)NC(=O)[C@H](CCCCNC(=N)N)NC(=O)CO)C2CCCCC2)[C@H](O)[C@H](C)O1 [2-hydroxyacetyl-HomoRASChgQ-SL-DOX (3′), 2-hydroxyacetyl-hArgAlaSerChgGln-SerLeu-DOX (3′)] (Glycolyl-[hArg]AS[Chg]QSL-{Doxorubicin(3'-N)}) | 5.10 |  | 
COc1cccc2c1C(=O)c1c(O)c3c(c(O)c1C2=O)C[C@@](O)(C(=O)CO)C[C@@H]3O[C@H]1C[C@H](NC(=O)[C@H](CC(C)C)NC(=O)[C@H](CO)NC(=O)[C@H](CCC(N)=O)NC(=O)[C@@H](NC(=O)[C@H](CCCCNC(=N)N)NC(=O)[C@H](CO)NC(=O)CO)C2CCCCC2)[C@H](O)[C@H](C)O1 [2-hydroxyacetyl-SHomoRChgQ-SL-DOX (3′), 2-hydroxyacetyl-SerhArgChgGln-SerLeu-DOX (3′)] (Glycolyl-S[hArg][Chg]QSL-{Doxorubicin(3'-N)}) | 5.29 |  | pEC50 (DuPRO cells): < 4.00
COc1cccc2c1C(=O)c1c(O)c3c(c(O)c1C2=O)C[C@@](O)(C(=O)CO)C[C@@H]3O[C@H]1C[C@H](NC(=O)[C@H](CC(C)C)NC(=O)[C@H](CO)NC(=O)[C@H](CCC(N)=O)NC(=O)[C@@H](NC(=O)[C@H](CO)NC(=O)[C@H](CO)NC(=O)[C@H](CCCCNC(=N)N)NC(=O)CO)C2CCCCC2)[C@H](O)[C@H](C)O1 [2-hydroxyacetyl-HomoRSSChgQ-SL-DOX (3′), 2-hydroxyacetyl-hArgSerSerChgGln-SerLeu-DOX (3′)] (Glycolyl-[hArg]SS[Chg]QSL-{Doxorubicin(3'-N)}) | 5.26 |  | pEC50 (DuPRO cells): < 4.00
COc1cccc2c1C(=O)c1c(O)c3c(c(O)c1C2=O)C[C@@](O)(C(=O)CO)C[C@@H]3O[C@H]1C[C@H](NC(=O)[C@H](CC(C)C)NC(=O)[C@H](CO)NC(=O)[C@H](CO)NC(=O)[C@H](CO)NC(=O)[C@H](CCC(N)=O)NC(=O)[C@H](Cc2ccc(O)cc2)NC(=O)[C@H](CO)NC(=O)CO)[C@H](O)[C@H](C)O1 [2-hydroxyacetyl-SYQ-SSSL-DOX (3′), 2-hydroxyacetyl-SerTyrGln-SerSerSerLeu-DOX (3′)] (Glycolyl-SYQSSSL-{Doxorubicin(3'-N)}) | 4.73 |  | 
PEG(2)-3PAL-SSChgQ-SL-acid: blocked oligopeptide with PSA cleavage site, Example 1 ({Decanoyl(3,6,9-trioxa)}-[3Pal]SS[Chg]QSL-OH; SMILES COCCOCCOCC(=O)N[C@@H](Cc1cccnc1)C(=O)N[C@@H](CO)C(=O)N[C@@H](CO)C(=O)N[C@H](C(=O)N[C@@H](CCC(N)=O)C(=O)N[C@@H](CO)C(=O)N[C@@H](CC(C)C)C(=O)O)C1CCCCC1) |  |  | Time to 50% Substrate Cleavage by York PSA [3, 4]: 80 min
2,3-dihydroxypropionyl-ShRYQ-SL-acid: blocked oligopeptide with PSA cleavage site, Example 1 ({2,3‑dihydroxypropionyl}-S[hArg]YQSL-OH) |  |  | Time to 50% Substrate Cleavage by York PSA [3, 4]: 35 min and 50 min
CCCC[C@H](NC(=O)[C@H](CO)NC(=O)[C@H](CCC(N)=O)NC(=O)[C@H](Cc1ccc(O)cc1)NC(=O)[C@H](CO)NC(=O)[C@H](CO)NC(=O)[C@H](CCCCNC(=N)N)NC(C)=O)C(=O)O [Ac-hRSSYQ-SNle-acid] (Ac-[hArg]SSYQS[Nle]-OH) |  |  | Time to 50% Substrate Cleavage by York PSA ([3]; psa digestion buffer, pH 8): 25 min

Reference: US6391305B1, “Conjugates useful in the treatment of prostate cancer” (priority 1999, dated 2002)
